Measured values as given in patent US6869929B2, “Use of transcription factors for treating inflammation and other diseases” (Beth Israel Deaconess Medical Center, priority 2000, dated 2005).

What was measured:
NOS2 promoter [1] = assay: LPS (endotoxin) induction of NOS2 promoter luciferase reporter in RAW cells; type: cell-based, murine; details: response to endotoxin (LPS)
Description: (§1) A 1516 and 265 bp fragment corresponding to nucleotides (−1485 to +31) and (−234 to +31) of the murine NOS2 gene promoter were subcloned into the PGL2 luciferase reporter(Promega).
(§2) Co-transfections of 2×10^5 RAW cells or RASMCs were carried out with 0.6 μg reporter gene construct DNA and 0.6 μg expression vector DNA using 6 μl lipofectamine (Gibco-BRL) as described (Oettgen, P., et al. 1996. Characterization of NERF, a novel transcription factor related to the Ets factor ELF-1. Mol Cell Biol 16:5091-106). The cells were harvested 16 hours after transfection and assayed for luciferase activity. Transfections for every construct were performed independently in duplicates and repeated 3 times with two different plasmid preparations with similar results. Cotransfection of a second plasmid for determination of transfection efficiency was omitted because potential artifacts with this technique have been reported and because many commonly used viral promoters contain potential binding sites for ets factors (Farr, A., and A. Roman. 1992. A pitfall of using a second plasmid to determine transfection efficiency. Nucleic Acids Res 20:920).
In the presence of LPS, the ESE-1 DN1 protein blocked induction of the NOS2 promoter by LPS by approximately 70-75%. (See FIG. 21C).

ESE-1 promoter = ESE-1 promoter luciferase construct (pXP2/ESE-1) transfection; type: cell-based, human; details: RAW 264.7 cells; 16 h
Description: (§3) Cotransfections of 3-8×10^5 cells were carried out with 600 ng reporter gene construct DNA and 200 ng expression vector DNA using LipofectAMINE PLUS (Gibco-BRL) for 16 hours as described (Oettgen, P., et al. et al., 1997, Mol Cell Biol 17:4419-33). Transfections were performed independently in duplicate and repeated 3 to 4 times with different plasmid preparations with similar results.
To investigate the molecular mechanism by which IL-1 β and LPS regulate ESE-1 expression, we examined the response of an ESE-1 promoter luciferase construct after transfection using two cytokine responsive non-epithelial cell types, U-138 MG human glial cells and RAW 264.7 cells, a murine macrophage cell line (Oettgen, P., et al. 1999, Genomics 55:358-62). Whereas the parental pXP2 vector was not stimulated by IL-1β, in U-138 MG cells, IL-1β increased ESE-1 promoter activity up to 5-fold (FIG. 12a). Similarly, LPS enhanced ESE-1 promoter activity ˜9-fold in RAW 264.7 cells (FIG. 12b).

COX-2 promoter = COX-2 promoter luciferase construct (pXP2/COX-2) in RAW 264.7 cells; type: cell-based, human; details: luciferase 16 h
Description: Full-length and dominant-negative mutant ESE-1 cDNAs were inserted into the pCI (Promega) eukaryotic expression vector as described (Oettgen, P., et al. et al. 1997, Mol Cell Biol 17:4419-33). The human COX-2 promoter spanning −170 to +103, kindly provided by Dr. Leslie J. Crofford, University of Michigan, (14) was cloned into the pXP2 luciferase vector (pXP2/COX-2).
as §3
We were interested to know which genes that are associated with inflammatory responses are targeted by ESE-1. We focused on the COX-2 gene, an important target for IL-1β, TNF-α, and LPS in inflammation. Furthermore, the COX-2 promoter contains multiple putative Ets binding sites that are potential targets for ESE-1. A COX-2 promoter luciferase construct, pXP2/COX-2, was transfected into RAW 264.7 cells in the absence or presence of the ESE-1 expression vector, pCI/ESE-1. ESE-1 enhanced COX-2 promoter activity more than 10-fold (FIG. 13a). […]

ESE-1 = ESE-1 mRNA RT-PCR in THP-1 monocytic cells; type: cell-based, human; details: THP-1 cells; within one hour
Description: U-87 Mg and U-138 Mg (human glioma), THP-1 (human monocytic), RAW 264.7 (murine monocytic), LB-12 (human osteoblast-like large T antigen transformed bone marrow stromal cells), and human chondrocytes were grown and treated with cytokines as described (Apperley, J., et al. 1990. J Bone Mineral Res. 5:S93; Goldring, M. B., et al. 1994. J Clin Invest 94:2307-16; Goldring, S. R., et al. 1983. J Bone Joint Surg 65:575-84; Libermann, T. A., et al. 1987. Embo J. 6:1627-1632).
cDNAs were generated from 1 μg of total RNA using Ready-To-Go™ You-prime First-Strand Beads (Amersham Pharmacia Biotech Inc). RT-PCR amplifications of 0.1 μg cDNA were carried out using a MJResearch thermal cycler PTC-100 as follows: 5 min at 94° C., 20-37 cycles of 30 sec at 94° C., 30 sec at 56° C., and 30 sec at 72° C., followed by 5 min at 72° C. (Oettgen, P., et al. 2000, J Biol Chem 275:1216-25). The sequences of the human ESE-1 primers and the primers for human GAPDH were as described (Oettgen, P., et al. 1999, J Biol Chem 274:29439-52).
Macrophages represent an additional cell type present within RA synovial tissues and are a major target of bacterial endotoxin. We, therefore, examined the effects of lipopolysaccharide (LPS) on ESE-1 expression in monocytes using the human monocytic cell line, THP-1 (FIG. 11e).

NOS2 promoter [2] = assay: ESE-1 transactivation of NOS2 promoter luciferase reporter, cotransfection in RAW cells; type: cell-based, murine; details: cotransfection with NOS2 promoter
Description: as §1, §2
The ability of ESE-1 DN 1 to block transactivation of the NOS2 promoter was tested in RAW cells. Cotransfection of ESE-1 with the NOS2 promoter led to an approximate 12-fold increase in transactivation. […]

ICAM-2 promoter = assay: Cotransfection of ESE-1 with luciferase reporter constructs of potential target genes; type: cell-based; details: cotransfection of expression plasmid with luciferase reporter
Description: as §2
In an attempt to identify target genes for ESE-1, the ability of ESE-1 to transactivate the promoters of several genes that are induced in response to inflammatory stimuli were tested. […] Transactivation of the ICAM-2 promoter by ESE-1 led to a 3.5 fold induction. […] The NOS2 gene promoter has two important regulatory regions, one that is upstream (−1100 to −800) and one that is in the more proximal promoter (−234 to +31). […]

COL2A1 promoter [3] = assay: COL2A1 promoter luciferase cotransfection in T/C-28a2 cells; type: cell-based, human; details: T/C-28a2; pGL3 construct; highest concentrations tested
Description: (§4) The COL2A1 sequence spanning −577 to +3428 bp (Goldring M B, et al, J Cell Biochem 1994;54:85-99, 39) was cloned into the pGL2-basic (pGL2B) luciferase reporter gene vector (Promega,) and named pGL2-COL2/4.0. Deletion constructs containing −577/+125 bp, −131/+125 bp, −87/+125 bp were prepared by enzyme digestion of pGL2-COL2/4.0 using PstI, ApaI, and PuuII, followed by ligation. For the deletion constructs −45/+125 bp, −83/+7 bp, and −45/+7 bp, PCR products were generated as described (Osaki et al.) and cloned into the pGL2-Basic luciferase vector. These reporter constructs were used as templates to generate point mutations or internal deletions by PCR mutagenesis employing the oligonucleotides listed in FIG. 16 and the QuikChange™ Site-Directed Mutagenesis Kit (Stratagene, La Jolla, Calif.). DNA fragments containing point mutations were then cloned into the pGL2B vector and confirmed by DNA sequencing using a G2 primer on pGL2 DNA. Deletions were also made in the −577/+127 bp COL2A1 promoter construct using the ExSite™ PCR-Based Site-Directed Mutagenesis Kit (Stratagene).
(§5) Transient transfection experiments were carried out in C-28/I2 cells using LipofectAMINE PLUS™ Reagent (Life Technologies). Cells were seeded in 6-well tissue culture plates at 3.5×10^5 cells/well in DMEM/F12 containing 10% FCS 24 h prior to transfection. For each well, 1 μg of COL2A1-luciferase construct, 6 μl of PLUS reagent and 92 μl of serum-free DMEM/F12 were mixed and incubated for 15 min at room temperature. LipofectAMINE+ reagent (4 μl) in 100 μl of serum-free medium was then added to each reaction mixture and incubation was continued for an additional 30 min at room temperature. Finally, the transfection mixture was combined with 800 μl of serum-free medium and the lipid-nucleic acid complex was transferred to the washed cell monolayer in each well. After incubation for 4 h at 37° C., the transfection mix was diluted with an equal volume of DMEM/F12 containing 2% Nutridoma-SP, and incubation continued for 18 h in the absence or presence of IL-1β. For cotransfections, the cells were incubated for 24 h to permit expression of recombinant proteins prior to treatment with IL-1β for a further 18 h. Cell lysates were prepared by extraction with 200 μl of Reporter Lysis Buffer (Promega) and the protein content was determined using the Coomassie Plus Protein Assay Reagent (PIERCE). Luciferase activities were determined by chemiluminescence assay using the Autolumat LB953 luminometer (EG&G Berthold, Oak Ridge, Tenn.), normalized to the amount of protein. Each data point was calculated as the mean±standard deviation for three independently transfected cultures from one representative of at least three experiments. […]

COL2A1 promoter [4] = assay: COL2A1 promoter/intron deletion constructs, transient transfection in C-28/I2 cells; type: cell-based, human
Description: as §4
as §5, with “For cotransfections, the cells were incubated for 24 h to permit expression of recombinant proteins prior to treatment with IL-1β for a further 18 h.” left out
To localize the responses to IL-1β and ESE-1 in the COL2A1 promoter, we made several 5′-deletions of the −577/+127 bp promoter construct, which we had previously determined to be responsive to IL-1β.

[5] = biological target: T1, p65 subunit of NF-kB, full-length, in vitro translated (UniProt Q04206 1-551, limits assumed, 35S-methionine labeled (pull-down assay)); assay: GST pull-down, 35S-labeled in vitro translated p65
T1 construct: mature; In the pull-down it was translated in rabbit reticulocyte lysate with 35S-methionine; in the cotransfections it was expressed from pCI; also called p65 Rel domain protein
Description: A series of GST-ESE-1 fusion proteins were generated by PCR with specific primers to contain in frame restriction enzyme sites and sequenced to confirm that there were no mutations introduced by the PCR. GST-ESE-1 fusion proteins were prepared as previously described. 35S-methionine labeled in vitro translated full-length p50 and p65 were incubated with equal amounts of GST-ESE-1 fusion proteins or GST on agarose beads in 200 ul of NETN(0.5% Nonidet P-40, 1 mM EDTA, 20 mM Tris-HCl, pH 8.0, 100 mM NaCl) for 3 h at 4 degrees C. with gentle shaking. Bound p50 or p65 proteins were then eluted after three washings with NETN buffer and analyzed on a 12% SDS-polyacrylamide gel.

T1 sequence (Q04206 whole entry, the tested form may be a part): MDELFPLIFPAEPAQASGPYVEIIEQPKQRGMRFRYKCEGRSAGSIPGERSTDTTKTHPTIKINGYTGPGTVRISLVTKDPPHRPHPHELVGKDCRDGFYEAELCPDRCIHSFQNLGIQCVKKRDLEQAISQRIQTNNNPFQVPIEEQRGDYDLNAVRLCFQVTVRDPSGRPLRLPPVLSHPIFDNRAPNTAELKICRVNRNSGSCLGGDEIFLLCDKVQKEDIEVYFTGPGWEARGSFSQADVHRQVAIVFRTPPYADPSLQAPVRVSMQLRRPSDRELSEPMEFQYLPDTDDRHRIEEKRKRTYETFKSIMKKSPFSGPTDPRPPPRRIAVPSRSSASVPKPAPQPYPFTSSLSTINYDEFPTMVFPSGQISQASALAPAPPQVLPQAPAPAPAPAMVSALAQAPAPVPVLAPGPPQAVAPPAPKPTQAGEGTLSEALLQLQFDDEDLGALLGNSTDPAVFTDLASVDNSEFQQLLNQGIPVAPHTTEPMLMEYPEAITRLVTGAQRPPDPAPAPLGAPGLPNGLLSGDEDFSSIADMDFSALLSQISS

Molecule	increase in NOS2 promoter activity (NOS2 promoter [1]) [fold]	increase in ESE-1 promoter activity (ESE-1 promoter) [fold]	induction of COX-2 promoter activity (COX-2 promoter)	ESE-1 expression (ESE-1)	increase in transactivation of the NOS2 promoter (NOS2 promoter [2]) [fold]	induction of the ICAM-2 promoter (ICAM-2 promoter) [fold]	inhibition of COL2A1/4.0 activity (COL2A1 promoter [3]) [%]	response of -131/+127 and -83/+127 bp constructs (COL2A1 promoter [4])	inhibition of -577/+127, -530/+127, -403/+127 bp constructs (COL2A1 promoter [4]; 200 ng, highest amount)	increased expression of pGL2P+2370/+2672 and pGL2B-28/+2122 constructs (COL2A1 promoter [4]; overexpression) [fold]	binding result [5]
lipopolysaccharide [LPS]	~14	~9	more than 20 fold	induced ESE-1 expression	–	–	–	–	–	–	–
ESE-1: full-length Ets transcription factor ESE-1 overexpressed from the pCI expression vector	–	–	more than 10 fold	–	~12	3.5	20	did not respond	levels of inhibition similar to IL-1β	~10	–
GST-ESE-1 fusion protein, full length ESE-1 (other, UniProt P78545 1-371, looked up, mature; GST fusion on agarose beads in the pull-down; also called full length ESE-1 protein; not shown: glutathione S-transferase (GST) fusion partner) MAATCEISNIFSNYFSAMYSSEDSTLASVPPAATFGADDLVLTLSNPQMSLEGTEKASWLGEQPQFWSKTQVLDWISYQVEKNKYDASAIDFSRCDMDGATLCNCALEELRLVFGPLGDQLHAQLRDLTSSSSDELSWIIELLEKDGMAFQEALDPGPFDQGSPFAQELLDDGQQASPYHPGSCGAGAPSPGSSDVSTAGTGASRSSHSSDSGGSDVDLDPTDGKLFPSDGFRDCKKGDPKHGKRKRGRPRKLSKEYWDCLEGKKSKHAPRGTHLWEFIRDILIHPELNEGLMKWENRHEGVFKFLRSEAVAQLWGQKKKNSNMTYEKLSRAMRYYYKREILERVDGRRLVYKFGKNSSGWKEEEVLQSRN	–	–	–	–	–	–	–	–	–	–	no binding
